From patent US8765741B2, “5,6-dihydro-1H-pyridin-2-one compounds” (Anadys Pharmaceuticals, Inc., priority 2007, dated 2014)

Target: NS5B polymerase (Hepatitis C virus genotype 1b, UniProt P26663)
Experiment: biochemical
Conditions: not given
Procedure: Compounds were tested for HCV polymerase inhibition. Assays were performed in a 96-well streptavidin-coated FlashPlate using 20 nM enzyme, 0.5 μCi of [α-^33P]GTP, 0.6 μM GTP, and 250 nM 5′biotinylated oligo (rG13)/poly rC in 20 mM Tris-HCl, pH 7.5, 5 mM MgCl2, 5 mM dithiothreitol, 0.1 g/L bovine serum albumin, and 100 U/mL RNAse inhibitor. The reaction was stopped by aspiration after 75 min at 28° C. and the plate was washed several times. After washing and drying the plate, incorporated radioactivity was counted using a Microbeta scintillation counter. IC50 values were calculated relative to the uninhibited control and inhibition data were fitted to a 4-parameter IC50 equation.

Sequence of NS5B polymerase (P26663 2420-3010): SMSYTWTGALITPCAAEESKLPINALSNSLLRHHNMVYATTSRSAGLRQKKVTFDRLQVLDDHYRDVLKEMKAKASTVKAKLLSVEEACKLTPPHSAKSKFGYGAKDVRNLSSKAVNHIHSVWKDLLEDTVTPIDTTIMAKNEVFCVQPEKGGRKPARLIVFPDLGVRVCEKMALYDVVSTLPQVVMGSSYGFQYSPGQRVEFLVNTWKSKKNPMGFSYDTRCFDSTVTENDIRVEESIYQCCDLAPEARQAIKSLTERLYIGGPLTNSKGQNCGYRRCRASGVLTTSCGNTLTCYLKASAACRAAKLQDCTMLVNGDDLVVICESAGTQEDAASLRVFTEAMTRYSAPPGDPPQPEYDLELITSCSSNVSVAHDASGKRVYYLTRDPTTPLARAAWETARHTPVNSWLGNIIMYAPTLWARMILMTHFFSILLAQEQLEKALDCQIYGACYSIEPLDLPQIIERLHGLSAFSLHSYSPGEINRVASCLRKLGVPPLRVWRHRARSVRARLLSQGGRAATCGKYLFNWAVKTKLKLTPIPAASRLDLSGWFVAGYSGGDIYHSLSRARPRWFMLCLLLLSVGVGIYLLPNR

| SMILES | IC50 [nM] |
| --- | --- |
| CS(=O)(=O)Nc1ccc2c(c1)S(=O)(=O)N=C(C1=C(O)C3C4CCC(C4)C3N(Cc3ccc(F)cc3)C1=O)N2 (racemic) [Example 1, (rac-di-exo)-N-{3-[3-(4-Fluoro-benzyl)-6-hydroxy-4-oxo-3-aza-tricyclo[6.2.1.0^2,7]undec-5-en-5-yl]-1,1-dioxo-1,4-dihydro-1λ^6-benzo[1,2,4]thiadiazin-7-yl}-methanesulfonamide] | < 20 |
| CS(=O)(=O)Nc1ccc2c(c1)S(=O)(=O)N=C(C1=C(O)[C@@H]3[C@@H]4CC[C@@H](C4)[C@@H]3N(Cc3ccc(F)cc3)C1=O)N2 [Example 4, N-{3-[(1S,2S,7R,8R)-3-(4-Fluoro-benzyl)-6-hydroxy-4-oxo-3-aza-tricyclo[6.2.1.0^2,7]undec-5-en-5-yl]-1,1-dioxo-1,4-dihydro-1λ^6-benzo[1,2,4]thiadiazin-7-yl}-methanesulfonamide] | < 20 |
| CS(=O)(=O)Nc1ccc2c(c1)S(=O)(=O)N=C(C1=C(O)[C@H]3[C@@H]4CC[C@@H](C4)[C@H]3N(Cc3ccc(F)cc3)C1=O)N2 [Example 7, N-{3-[(1S,2R,7S,8R)-3-(4-Fluoro-benzyl)-6-hydroxy-4-oxo-3-aza-tricyclo[6.2.1.0^2,7]undec-5-en-5-yl]-1,1-dioxo-1,4-dihydro-1λ^6-benzo[1,2,4]thiadiazin-7-yl}-methanesulfonamide] | 100 to 1000 |

Same assay, conditions: NS5B polymerase inhibition; 20 nM enzyme, 75 min at 28° C.; read-out: IC50

| IC50 [nM] | SMILES |
| --- | --- |
| 1000 to 100000 | CS(=O)(=O)Nc1ccc2c(c1)S(=O)(=O)N=C(C1=C(O)[C@@H]3[C@H]4CC[C@H](C4)[C@@H]3NC1=O)N2 [Example 27, (1R,2S,7R,8S)-N-[3-(6-Hydroxy-4-oxo-3-aza-tricyclo[6.2.1.0^2,7]undec-5-en-5-yl)-1,1-dioxo-1,4-dihydro-1λ^6-benzo[1,2,4]thiadiazin-7-yl]-methanesulfonamide] |
| 20 to 100 | CC(C)CCN1C(=O)C(C2=NS(=O)(=O)c3cc(NS(=O)(=O)C4CC4)ccc3N2)=C(O)C2C3CCC(O3)C21 (racemic) [Example 42, (rac-di-exo)-Cyclopropanesulfonic acid{3-[6-hydroxy-3-(3-methyl-butyl)-4-oxo-11-oxa-3-aza-tricyclo[6.2.1.0^2,7]undec-5-en-5-yl]-1,1-dioxo-1,4-dihydro-1λ^6-benzo[1,2,4]thiadiazin-7-yl}-amide] |
| < 20 | O=C1C(C2=NS(=O)(=O)c3cc(NS(=O)(=O)C4CC4)ccc3N2)=C(O)C2C3C=CC(C3)C2N1Cc1ccc(F)cc1 (racemic) [Example 46, (rac-di-exo)-Cyclopropanesulfonic acid{3-[3-(4-fluoro-benzyl)-6-hydroxy-4-oxo-3-aza-tricyclo[6.2.1.0^2,7]undeca-5,9-dien-5-yl]-1,1-dioxo-1,4-dihydro-1λ^6-benzo[1,2,4]thiadiazin-7-yl}-amide] |
| 20 to 100 | CS(=O)(=O)Nc1ccc2c(c1)S(=O)(=O)N=C(C1=C(O)[C@H]3[C@H]4CC[C@H]([C@@H]5C[C@@H]54)[C@H]3N(Cc3ccc(F)cc3)C1=O)N2 (racemic) [Example 51, rac-N-{3-[(1R,2R,7S,8S,9S,11R)-3-[(4-Fluorophenyl)methyl]-6-hydroxy-4-oxo-3-azatetracyclo[6.3.2.0^2,7.0^9,11]tridec-5-en-5-yl]-1,1-dioxo-4H-1λ^6,2,4-benzothiadiazin-7-yl}methanesulfonamide] |
| < 20 | CS(=O)(=O)Nc1ccc2c(c1)S(=O)(=O)C=C(C1=C(O)[C@@H]3[C@H]4CC[C@H](C4)[C@@H]3N(Cc3ccc(F)cc3)C1=O)N2 [Example 29, N-{3-[(1R,2S,7R,8S)-3-(4-Fluoro-benzyl)-6-hydroxy-4-oxo-3-aza-tricyclo[6.2.1.0^2,7]undec-5-en-5-yl]-1,1-dioxo-1,4-dihydro-1λ^6-benzo[1,4]thiazin-7-yl}-methanesulfonamide] |
| 100 to 1000 | CC(C)CCN1C(=O)C(C2=NS(=O)(=O)c3cc(N(C)S(C)(=O)=O)ccc3N2)=C(O)C2C3CCC(O3)C21 (racemic) [Example 59, (rac-di-exo)-N-{3-[6-Hydroxy-3-(3-methyl-butyl)-4-oxo-11-oxa-3-aza-tricyclo[6.2.1.0^2,7]undec-5-en-5-yl]-1,1-dioxo-1,4-dihydro-1λ^6-benzo[1,2,4]thiadiazin-7-yl}-N-methyl-methanesulfonamide] |
| 1000 to 100000 | CC(C)CCN1C(=O)C(C2=NS(=O)(=O)c3cc(I)ccc3N2)=C(O)[C@@H]2[C@H]3CC[C@H](C3)[C@@H]21 [Example 34, (1R,2S,7R,8S)-6-Hydroxy-5-(7-iodo-1,1-dioxo-1,4-dihydro-1λ^6-benzo[1,2,4]thiadiazin-3-yl)-3-(3-methyl-butyl)-3-aza-tricyclo[6.2.1.0^2,7]undec-5-en-4-one] |
| 20 to 100 | CS(=O)(=O)Nc1ccc2c(c1)S(=O)(=O)N=C(C1=C(O)C3C4CCC(C5CC54)C3N(Cc3ccc(F)cc3)C1=O)N2 (racemic) [Example 52] |
| < 20 | CS(=O)(=O)Nc1ccc2c(c1)S(=O)(=O)N=C(C1=C(O)C3C4CCC(O4)C3N(Cc3ccc(F)cc3)C1=O)N2 (racemic) [Example 8, (rac-di-exo)-N-{3-[3-(4-Fluoro-benzyl)-6-hydroxy-4-oxo-11-oxa-3-aza-tricyclo[6.2.1.0^2,7]undec-5-en-5-yl]-1,1-dioxo-1,4-dihydro-1λ^6-benzo[1,2,4]thiadiazin-7-yl}-methanesulfonamide] |
| 20 to 100 | CS(=O)(=O)Nc1ccc2c(c1)S(=O)(=O)N=C(C1=C(O)C3C4CCC(O4)C3N(C3CCCC3)C1=O)N2 (racemic) [Example 48, (rac-di-exo)-N-[3-(3-Cyclopentyl-6-hydroxy-4-oxo-11-oxa-3-aza-tricyclo[6.2.1.0^2,7]undec-5-en-5-yl)-1,1-dioxo-1,4-dihydro-1λ^6-benzo[1,2,4]thiadiazin-7-yl]-methanesulfonamide] |
| 20 to 100 | O=C1C(C2=NS(=O)(=O)c3cc(NS(=O)(=O)c4ccccc4)ccc3N2)=C(O)[C@@H]2[C@H]3CC[C@H](C3)[C@@H]2N1Cc1ccc(F)cc1 [Example 41, N-{3-[(1R,2S,7R,8S)-3-(4-Fluoro-benzyl)-6-hydroxy-4-oxo-3-aza-tricyclo[6.2.1.0^2,7]undec-5-en-5-yl]-1,1-dioxo-1,4-dihydro-1λ^6-benzo[1,2,4]thiadiazin-7-yl}-benzenesulfonamide] |
| < 20 | CS(=O)(=O)Nc1ccc2c(c1)S(=O)(=O)N=C(C1=C(O)C3C(C4CC(O)[C@H]3C4)N(Cc3ccc(F)cc3)C1=O)N2 (stereo in doubt) [Example 67, N-{3-[(1R,2S,7R,8S)-3-(4-Fluoro-benzyl)-6,9-dihydroxy-4-oxo-3-aza-tricyclo[6.2.1.0^2,7]undec-5-en-5-yl]-1,1-dioxo-1,4-dihydro-1λ^6-benzo[1,2,4]thiadiazin-7-yl}-methanesulfonamide] |
| 100 to 1000 | O=C1C(C2=NS(=O)(=O)c3cc(NS(=O)(=O)c4cccnc4)ccc3N2)=C(O)C2C([C@@H]3CC[C@H]2C3)N1Cc1ccc(F)cc1 (stereo partly drawn) [Example 54, Pyridine-3-sulfonic acid{3-[(1R,2S,7R,8S)-3-(4-fluoro-benzyl)-6-hydroxy-4-oxo-3-aza-tricyclo[6.2.1.0^2,7]undec-5-en-5-yl]-1,1-dioxo-1,4-dihydro-1λ^6-benzo[1,2,4]thiadiazin-7-yl}-amide] |
| < 20 | Cc1cc(CN2C(=O)C(C3=NS(=O)(=O)c4cc(NS(C)(=O)=O)ccc4N3)=C(O)C3C4CCC(O4)C32)ccc1F (racemic) [Example 12, (rac-di-exo)-N-{3-[3-(4-Fluoro-3-methyl-benzyl)-6-hydroxy-4-oxo-11-oxa-3-aza-tricyclo[6.2.1.0^2,7]undec-5-en-5-yl]-1,1-dioxo-1,4-dihydro-1λ^6-benzo[1,2,4]thiadiazin-7-yl}-methanesulfonamide] |
| 1000 to 100000 | CC(C)CCN1C(=O)C(C2=NS(=O)(=O)c3cc(I)ccc3N2)=C(O)C2C3CCC(O3)C21 (racemic) [Example 33, (rac-di-exo)-6-Hydroxy-5-(7-iodo-1,1-dioxo-1,4-dihydro-1λ^6-benzo[1,2,4]thiadiazin-3-yl)-3-(3-methyl-butyl)-11-oxa-3-aza-tricyclo[6.2.1.0^2,7]undec-5-en-4-one] |
| < 20 | CS(=O)(=O)Nc1ccc2c(c1)S(=O)(=O)N=C(C1=C(O)[C@@H]3[C@H]4CC[C@H](C4)[C@@H]3N(Cc3ccc(F)c(Cl)c3)C1=O)N2 [Example 58, (1R,2S,7R,8S)-N-{3-[3-(3-Chloro-4-fluoro-benzyl)-6-hydroxy-4-oxo-3-aza-tricyclo[6.2.1.0^2,7]undec-5-en-5-yl]-1,1-dioxo-1,4-dihydro-1λ^6-benzo[1,2,4]thiadiazin-7-yl}-methanesulfonamide] |
| 20 to 100 | CN(c1ccc2c(c1)S(=O)(=O)N=C(C1=C(O)[C@@H]3[C@H]4CC[C@H](C4)[C@@H]3N(Cc3ccc(F)c(F)c3)C1=O)N2)S(C)(=O)=O [Example 17, N-{3-[(1R,2S,7R,8S)-3-(3,4-Difluoro-benzyl)-6-hydroxy-4-oxo-3-aza-tricyclo[6.2.1.0^2,7]undec-5-en-5-yl]-1,1-dioxo-1,4-dihydro-1λ^6-benzo[1,2,4]thiadiazin-7-yl}-N-methyl-methanesulfonamide] |
| 20 to 100 | CC(C)(C)CCN1C(=O)C(C2=NS(=O)(=O)c3cc(NS(=O)(=O)C4CC4)ccc3N2)=C(O)C2C3C=CC(C3)C21 (racemic) [Example 43, (rac-di-exo)-Cyclopropanesulfonic acid{3-[3-(3,3-dimethyl-butyl)-6-hydroxy-4-oxo-3-aza-tricyclo[6.2.1.0^2,7]undeca-5,9-dien-5-yl]-1,1-dioxo-1,4-dihydro-1λ^6-benzo[1,2,4]thiadiazin-7-yl}-amide] |
| 1000 to 100000 | CC(C)OC(=O)N(c1ccc2c(c1)S(=O)(=O)N=C(C1=C(O)C3C([C@@H]4CC[C@H]3C4)N(C3CCCC3)C1=O)N2)S(C)(=O)=O (stereo partly drawn) [Example 47, N-[3-(1R,2S,7R,8S)-(3-Cyclopentyl-6-hydroxy-4-oxo-3-aza-tricyclo[6.2.1.0^2,7]undec-5-en-5-yl)-1,1-dioxo-1,4-dihydro-1λ^6-benzo[1,2,4]thiadiazin-7-yl]-methanesulfonamide-N-isopropyl carbamate] |
